{
  "source": "patent US5663298A",
  "about": "“UCK14 compounds” (Kyowa Hakko Kogyo Co., Ltd., priority 1995, dated 1997)",
  "key": {"[1]": {"assay": "Solubility (physicochemical properties)", "settings": "qualitative, in various solvents", "excerpt": "The physicochemical properties of UCK14 compounds are shown below."}, "[2]": {"system": "human pancreatic carcinoma PSN-1 cells", "assay": "Growth inhibition against human pancreatic carcinoma PSN-1 cells (MTT)", "assay_type": "cell-based", "settings": "72 hours culture, read-out: IC50 (50% growth inhibitory concentration) PSN-1", "excerpt": "(§1) Growth inhibition against human epidermoid carcinoma A431 cells and human pancreatic carcinoma PSN-1 cells\n(§2) Human epidermoid carcinoma A431 cells (ATCC CRL 1555) were suspended in Dulbecco's modified Eagle's medium (Nissui Pharmaceutical Co., Ltd.) supplemented with 10% fetal bovine serum (Filtron), and human pancreatic carcinoma PSN-1 cells [Biochem. Biophys. Res. Commun. 140, 167 (1986)] were suspended in RPMI-1640 medium (Gibco BRL) supplemented with 5% fetal bovine serum (Filtron). Each cell suspension was put into wells of a 96-well microtiter plate (#167008, Nunc) in an amount of 3×10^3 cells/well, followed by preincubation in a 5% CO2 -incubator at 37° C. for 24 hours. Then, 5mM solutions of UCK14A1, UCK14A2 and UCK14C were diluted stepwise and the resulting solutions were respectively added to the wells in an amount of 50 μl/well (highest final concentration: 1 mM). The cells were cultured in the 5% CO2 -incubator at 37° C. for 72 hours. Five hours before the end of culturing, 50 μl of a solution of MTT [3-(4,5-dimethylthiazo-2-yl)-2,5-diphenyltetrazolium bromide (Sigma Chemical Co., Ltd.)] in the medium (final concentration: 1 mg/ml) was added to each well. After the completion of culturing, DMSO was added to the wells in an amount of 150 μl/well, followed by vigorous stirring with a plate mixer to completely dissolve crystals of MTT-formazan. […]"}, "[3]": {"system": "human epidermoid carcinoma A431 cells", "assay": "Growth inhibition against human epidermoid carcinoma A431 cells (MTT)", "assay_type": "cell-based", "settings": "72 hours culture, read-out: IC50 (50% growth inhibitory concentration) A431", "excerpt": "as §1, §2"}},
  "data": [
    {"molecule": "CCC(C)C1C(=O)OC1C(=O)NC1CC1CC(NC(=O)C(C)N)C(=O)O", "note": "(stereo not drawn) [UCK14A1]", "values": [
      {"measurement": "Solubility", "setting": "[1]", "value": "Soluble in water, methanol and dimethylsulfoxide (DMSO); insoluble in hexane, chloroform and ethyl acetate"},
      {"measurement": "IC50", "setting": "[2]", "value": 16.1, "unit": "µM"},
      {"measurement": "IC50", "setting": "[3]", "value": 25.2, "unit": "µM"}
    ]}
  ]
}
